Measurements: patent publication US10670605B2, “Cysteine reactive probes and uses thereof” (The Scripps Research Institute, priority 2015, dated 2020)
Structures can show the parent of a compound that is named as a salt.

Key:
Test in all cases: isoTOP-ABPP of compound-treated primary human T cells
Assay type in all cases: cell-based
[1] = molecular target: T1, Cys residues in primary human T cells (Homo sapiens, UniProt O95336); conditions: PGLS C32 (095336)
T1 sequence (O95336 1-258): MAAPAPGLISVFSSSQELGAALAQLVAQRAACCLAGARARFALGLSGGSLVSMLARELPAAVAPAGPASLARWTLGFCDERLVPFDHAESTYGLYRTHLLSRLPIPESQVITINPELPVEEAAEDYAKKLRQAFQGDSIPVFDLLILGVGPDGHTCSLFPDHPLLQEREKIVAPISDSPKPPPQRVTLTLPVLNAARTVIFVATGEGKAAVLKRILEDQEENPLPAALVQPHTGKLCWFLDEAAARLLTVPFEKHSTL

[2] = molecular target: T2, Cys residues in primary human T cells (Homo sapiens, UniProt Q9UL40); conditions: ZNF346 C68 (Q9UL40)
T2 sequence (Q9UL40 1-294): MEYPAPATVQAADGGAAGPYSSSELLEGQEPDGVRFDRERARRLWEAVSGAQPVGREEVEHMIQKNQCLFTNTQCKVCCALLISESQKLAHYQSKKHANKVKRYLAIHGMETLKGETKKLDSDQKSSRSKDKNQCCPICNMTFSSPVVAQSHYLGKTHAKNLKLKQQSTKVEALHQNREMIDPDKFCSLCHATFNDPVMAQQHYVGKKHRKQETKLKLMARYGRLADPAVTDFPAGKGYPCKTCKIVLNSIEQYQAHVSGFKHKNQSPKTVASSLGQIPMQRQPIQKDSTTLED

[3] = molecular target: T3, Cys residues in primary human T cells (Homo sapiens, UniProt Q9Y4W2); conditions: LAS1L C456 (Q9Y4W2)
T3 sequence (Q9Y4W2 1-734): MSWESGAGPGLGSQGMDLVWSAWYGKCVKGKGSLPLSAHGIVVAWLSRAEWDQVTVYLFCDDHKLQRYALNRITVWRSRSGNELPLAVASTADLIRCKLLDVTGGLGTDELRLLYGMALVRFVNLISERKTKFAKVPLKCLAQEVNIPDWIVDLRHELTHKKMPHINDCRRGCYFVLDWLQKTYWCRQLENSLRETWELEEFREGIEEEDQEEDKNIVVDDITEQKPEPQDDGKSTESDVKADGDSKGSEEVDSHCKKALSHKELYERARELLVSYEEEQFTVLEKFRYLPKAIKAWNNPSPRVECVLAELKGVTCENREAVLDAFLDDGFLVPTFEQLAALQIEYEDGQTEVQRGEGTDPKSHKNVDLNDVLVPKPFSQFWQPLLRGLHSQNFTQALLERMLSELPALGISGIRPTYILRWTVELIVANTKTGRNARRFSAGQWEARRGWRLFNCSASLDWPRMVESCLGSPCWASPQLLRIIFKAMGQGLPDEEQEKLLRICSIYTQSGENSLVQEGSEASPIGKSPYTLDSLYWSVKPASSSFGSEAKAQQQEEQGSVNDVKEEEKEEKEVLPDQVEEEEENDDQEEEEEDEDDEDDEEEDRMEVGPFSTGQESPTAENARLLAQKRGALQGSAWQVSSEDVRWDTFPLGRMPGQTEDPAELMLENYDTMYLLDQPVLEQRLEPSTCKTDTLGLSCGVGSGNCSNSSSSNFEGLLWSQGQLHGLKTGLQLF

[4] = molecular target: T4, Cys residues in primary human T cells (Homo sapiens, UniProt A6NDG6); conditions: PGP C297 (A6NDG6)
T4 sequence (A6NDG6 1-321): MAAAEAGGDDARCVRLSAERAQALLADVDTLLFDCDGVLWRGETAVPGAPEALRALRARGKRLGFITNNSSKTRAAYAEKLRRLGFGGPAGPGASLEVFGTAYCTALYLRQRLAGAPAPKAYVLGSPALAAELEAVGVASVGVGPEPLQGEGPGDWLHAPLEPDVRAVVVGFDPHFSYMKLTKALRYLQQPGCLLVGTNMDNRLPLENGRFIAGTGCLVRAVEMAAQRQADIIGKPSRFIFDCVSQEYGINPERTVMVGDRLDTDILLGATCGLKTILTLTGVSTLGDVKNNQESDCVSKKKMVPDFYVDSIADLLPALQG

[5] = molecular target: Cys residues in primary human T cells (Homo sapiens, UniProt Q14005); conditions: IL16 C1004 (Q14005)
[6] = molecular target: Cys residues in primary human T cells (Homo sapiens, UniProt Q96CW5); conditions: TUBGCP3 C194 (Q960W5)
[7] = molecular target: T5, Cys residues in primary human T cells (Homo sapiens, UniProt P00813); conditions: ADA C75 (P00813)
T5 sequence (P00813 1-363): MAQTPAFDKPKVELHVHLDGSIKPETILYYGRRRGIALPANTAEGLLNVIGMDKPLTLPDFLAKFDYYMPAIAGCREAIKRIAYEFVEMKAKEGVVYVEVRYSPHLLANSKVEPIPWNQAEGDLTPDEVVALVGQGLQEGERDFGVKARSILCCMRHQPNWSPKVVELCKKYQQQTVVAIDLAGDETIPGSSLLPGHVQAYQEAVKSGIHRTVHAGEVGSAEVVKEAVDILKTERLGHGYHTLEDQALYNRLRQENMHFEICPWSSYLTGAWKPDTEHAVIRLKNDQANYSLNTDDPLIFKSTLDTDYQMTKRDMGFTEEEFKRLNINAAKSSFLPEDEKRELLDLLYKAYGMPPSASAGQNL

Chain of Cys residues in primary human T cells (Homo sapiens, UniProt Q14005) (Q14005 whole entry): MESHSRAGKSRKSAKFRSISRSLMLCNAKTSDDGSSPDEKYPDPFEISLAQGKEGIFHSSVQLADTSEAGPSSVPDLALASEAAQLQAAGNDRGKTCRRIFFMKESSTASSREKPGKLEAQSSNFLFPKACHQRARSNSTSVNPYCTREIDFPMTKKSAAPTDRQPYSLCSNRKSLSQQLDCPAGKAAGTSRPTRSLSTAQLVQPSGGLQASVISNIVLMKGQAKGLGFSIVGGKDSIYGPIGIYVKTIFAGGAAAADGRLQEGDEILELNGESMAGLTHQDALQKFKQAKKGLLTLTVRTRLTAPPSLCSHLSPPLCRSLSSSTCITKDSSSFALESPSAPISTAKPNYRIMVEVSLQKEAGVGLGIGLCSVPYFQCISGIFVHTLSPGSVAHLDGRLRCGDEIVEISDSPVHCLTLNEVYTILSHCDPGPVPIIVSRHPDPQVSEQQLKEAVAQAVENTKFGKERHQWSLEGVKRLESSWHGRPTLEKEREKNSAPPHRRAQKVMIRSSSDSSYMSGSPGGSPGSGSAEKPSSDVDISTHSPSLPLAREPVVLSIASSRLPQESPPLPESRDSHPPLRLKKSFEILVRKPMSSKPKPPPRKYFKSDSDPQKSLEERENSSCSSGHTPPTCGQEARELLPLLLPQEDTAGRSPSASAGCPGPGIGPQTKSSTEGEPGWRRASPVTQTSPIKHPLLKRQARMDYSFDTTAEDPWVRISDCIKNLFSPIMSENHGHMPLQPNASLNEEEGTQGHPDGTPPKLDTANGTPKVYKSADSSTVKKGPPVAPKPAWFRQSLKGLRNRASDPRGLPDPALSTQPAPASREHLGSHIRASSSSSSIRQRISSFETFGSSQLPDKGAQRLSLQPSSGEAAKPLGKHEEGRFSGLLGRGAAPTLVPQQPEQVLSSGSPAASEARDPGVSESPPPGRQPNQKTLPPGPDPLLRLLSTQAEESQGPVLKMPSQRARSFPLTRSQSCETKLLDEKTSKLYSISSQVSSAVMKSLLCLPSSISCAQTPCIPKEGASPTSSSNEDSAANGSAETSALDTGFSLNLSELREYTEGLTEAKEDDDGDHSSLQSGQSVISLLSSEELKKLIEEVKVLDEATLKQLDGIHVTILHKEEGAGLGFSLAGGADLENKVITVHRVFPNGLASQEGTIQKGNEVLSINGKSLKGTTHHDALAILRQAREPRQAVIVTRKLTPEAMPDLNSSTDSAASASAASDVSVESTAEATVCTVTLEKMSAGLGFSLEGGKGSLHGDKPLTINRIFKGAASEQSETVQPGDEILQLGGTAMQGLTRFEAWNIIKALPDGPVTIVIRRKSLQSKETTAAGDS
Chain of Cys residues in primary human T cells (Homo sapiens, UniProt Q96CW5) (Q96CW5 whole entry): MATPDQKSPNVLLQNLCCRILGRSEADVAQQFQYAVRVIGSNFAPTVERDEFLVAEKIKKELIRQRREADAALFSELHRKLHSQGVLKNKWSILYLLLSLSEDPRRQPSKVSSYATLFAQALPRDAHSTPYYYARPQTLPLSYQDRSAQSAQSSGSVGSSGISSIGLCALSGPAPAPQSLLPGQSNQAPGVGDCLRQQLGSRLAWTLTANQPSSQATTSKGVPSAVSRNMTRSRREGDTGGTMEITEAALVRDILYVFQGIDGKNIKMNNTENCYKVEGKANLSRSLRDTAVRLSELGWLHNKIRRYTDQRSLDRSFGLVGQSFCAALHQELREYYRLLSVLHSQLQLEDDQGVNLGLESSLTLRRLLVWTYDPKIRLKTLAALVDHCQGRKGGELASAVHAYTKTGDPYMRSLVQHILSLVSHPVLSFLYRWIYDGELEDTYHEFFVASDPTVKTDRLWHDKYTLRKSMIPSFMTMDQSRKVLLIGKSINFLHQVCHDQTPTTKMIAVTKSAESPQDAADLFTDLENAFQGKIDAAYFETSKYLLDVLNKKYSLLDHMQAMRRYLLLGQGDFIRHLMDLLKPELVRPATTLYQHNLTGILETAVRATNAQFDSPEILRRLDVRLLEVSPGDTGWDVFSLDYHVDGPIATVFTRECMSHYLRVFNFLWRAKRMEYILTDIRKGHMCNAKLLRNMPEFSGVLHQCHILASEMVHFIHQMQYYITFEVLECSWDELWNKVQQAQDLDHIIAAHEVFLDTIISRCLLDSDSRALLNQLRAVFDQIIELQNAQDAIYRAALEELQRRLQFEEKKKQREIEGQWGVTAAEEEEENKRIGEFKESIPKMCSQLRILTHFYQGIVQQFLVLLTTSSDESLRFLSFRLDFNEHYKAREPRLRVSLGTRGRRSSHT

**Q.** For COC(=O)/C=C/C(=O)OC [DMF, dimethyl fumarate], which “R value (DMSO/DMF)” value ([1]; DMF 10 μM 4h) is on record?
**A.** Its value is 1.9.

**Q.** What about the “R value (DMSO/DMF)” value ([1]; DMF 25 μM 4h) of the same molecule?
**A.** The value was 5.32.

**Q.** And the “R value (DMSO/DMF)” value ([1]; DMF 50 μM 1h)?
**A.** Its value is 3.42.

**Q.** What about the “R value (DMSO/DMF)” value ([1]; DMF 50 μM 2h) of the same molecule?
**A.** The value was 9.49.

**Q.** What about the “R value (DMSO/DMF)” value ([1]; DMF 50 μM 4h) of the same molecule?
**A.** Its value is 11.51.

**Q.** And the “R value (DMSO/DMF)” value ([2]; DMF 10 μM 4h)?
**A.** The value was 1.98.

**Q.** And the “R value (DMSO/DMF)” value ([2]; DMF 50 μM 1h)?
**A.** The value was 2.5.

**Q.** What about the “R value (DMSO/DMF)” value ([2]; DMF 50 μM 2h) of the same molecule?
**A.** The value was 3.91.

**Q.** What about the “R value (DMSO/DMF)” value ([2]; DMF 50 μM 4h) of the same molecule?
**A.** The value was 4.6.

**Q.** And the “R value (DMSO/DMF)” value ([3]; DMF 10 μM 4h)?
**A.** The value was 1.29.

**Q.** And the “R value (DMSO/DMF)” value ([3]; DMF 50 μM 1h)?
**A.** Its value is 1.8.

**Q.** What about the “R value (DMSO/DMF)” value ([3]; DMF 50 μM 2h) of the same molecule?
**A.** The value was 3.42.

**Q.** What about the “R value (DMSO/DMF)” value ([3]; DMF 50 μM 4h) of the same molecule?
**A.** The value was 5.61.

**Q.** What about the “R value (DMSO/DMF)” value ([4]; DMF 50 μM 1h) of the same molecule?
**A.** Its value is 3.06.

**Q.** What about the “R value (DMSO/DMF)” value ([4]; DMF 50 μM 2h) of the same molecule?
**A.** Its value is 4.21.

**Q.** And the “R value (DMSO/DMF)” value ([4]; DMF 50 μM 4h)?
**A.** The value was 10.77.

**Q.** What about the “R value (DMSO/DMF)” value ([5]; DMF 10 μM 4h) of the same molecule?
**A.** Its value is 1.37.

**Q.** What about the “R value (DMSO/DMF)” value ([5]; DMF 50 μM 1h) of the same molecule?
**A.** The value was 1.95.

**Q.** What about the “R value (DMSO/DMF)” value ([5]; DMF 50 μM 2h) of the same molecule?
**A.** The value was 3.32.

**Q.** What about the “R value (DMSO/DMF)” value ([5]; DMF 50 μM 4h) of the same molecule?
**A.** The value was 4.13.

**Q.** And the “R value (DMSO/DMF)” value ([6]; DMF 50 μM 2h)?
**A.** Its value is 2.44.

**Q.** And the “R value (DMSO/DMF)” value ([6]; DMF 50 μM 4h)?
**A.** The value was 4.94.

**Q.** And the “R value (DMSO/DMF)” value ([7]; DMF 10 μM 4h)?
**A.** The value was 2.29.

**Q.** What about the “R value (DMSO/DMF)” value ([7]; DMF 50 μM 1h) of the same molecule?
**A.** Its value is 2.51.

**Q.** And the “R value (DMSO/DMF)” value ([7]; DMF 50 μM 2h)?
**A.** Its value is 5.08.

**Q.** What about the “R value (DMSO/DMF)” value ([7]; DMF 50 μM 4h) of the same molecule?
**A.** Its value is 20.
